As usually defined, the IC50 is the concentration needed to halve the response being measured.

Results on 8 compounds are retold here after patent US20260209233A1, “ANNULATED PYRIDAZINE DERIVATIVE” (Tenvie Therapeutics, Inc., priority 2022, published 2026).

T1 sequence (Q96P20 whole entry): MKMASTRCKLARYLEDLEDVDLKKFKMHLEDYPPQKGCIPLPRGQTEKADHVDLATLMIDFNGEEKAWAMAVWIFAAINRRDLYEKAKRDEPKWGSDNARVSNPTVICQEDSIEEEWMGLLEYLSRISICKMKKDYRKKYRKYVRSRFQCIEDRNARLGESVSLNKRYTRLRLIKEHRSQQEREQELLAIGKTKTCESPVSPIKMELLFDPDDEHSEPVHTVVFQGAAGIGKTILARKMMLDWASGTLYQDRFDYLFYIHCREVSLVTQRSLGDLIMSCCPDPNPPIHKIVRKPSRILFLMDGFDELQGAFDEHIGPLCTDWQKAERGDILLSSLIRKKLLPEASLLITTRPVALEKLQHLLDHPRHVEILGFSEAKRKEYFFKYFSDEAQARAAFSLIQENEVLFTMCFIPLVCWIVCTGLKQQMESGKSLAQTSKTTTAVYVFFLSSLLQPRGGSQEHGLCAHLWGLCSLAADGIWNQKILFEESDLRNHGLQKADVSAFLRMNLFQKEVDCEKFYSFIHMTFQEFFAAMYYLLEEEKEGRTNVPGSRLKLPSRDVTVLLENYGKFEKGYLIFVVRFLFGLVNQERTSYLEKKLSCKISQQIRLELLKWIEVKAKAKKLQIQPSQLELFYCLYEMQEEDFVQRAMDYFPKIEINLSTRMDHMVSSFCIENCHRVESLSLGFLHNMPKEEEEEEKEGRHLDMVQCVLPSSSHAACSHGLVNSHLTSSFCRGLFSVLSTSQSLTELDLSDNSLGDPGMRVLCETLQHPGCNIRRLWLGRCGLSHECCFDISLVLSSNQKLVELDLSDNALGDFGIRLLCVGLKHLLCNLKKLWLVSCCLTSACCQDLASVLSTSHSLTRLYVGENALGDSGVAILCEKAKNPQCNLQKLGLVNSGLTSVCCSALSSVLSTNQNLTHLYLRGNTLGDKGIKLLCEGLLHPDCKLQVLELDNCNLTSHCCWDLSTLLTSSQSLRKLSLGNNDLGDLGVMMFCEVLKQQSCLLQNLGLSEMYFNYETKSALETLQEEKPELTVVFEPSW

This test concerns the target T1, NLRP3 inflammasome (Homo sapiens, UniProt Q96P20).
T1 construct: endogenous in cells; host or cells: THP-1 cells, PMA-differentiated and stimulated with LPS and ATP
In words: THP-1 IL-1β production inhibition test. Conditions: PMA-treated THP-1 cells, LPS 50 ng/ml + ATP 5 mM, 2 hours, IL-1β in supernatant by ELISA. The class given is cell-based. Here is the method: Test Example 1: THP-1 IL-1β Production Inhibition Test
PMA (phorbol myristate acetate, SIGMA, P1585) was added to THP-1 cells in an amount of 50 ng/mL to culture the cells for 2 days at 37° C. The culture medium was replaced with a serum-free RPMI-1640 medium, and a compound with a known concentration was added thereto to culture the cells at 37° C. for 15 minutes. LPS (Lipopolysaccharide, SIMGA, L2880) and ATP (Adenosine triphosphate, SIGMA, A2383) were added so that final concentrations become 50 ng/ml and 5 mM, respectively, followed by culturing at 37° C. for 2 hours. The supernatants were collected to measure the concentrations of IL-1β by ELISA (DuoSet ELISA human IL-1β, R&D Systems, DY201). The IL-1β concentrations were plotted against log concentrations of test compounds, and an IC50 value was calculated by sigmoid Emax model nonlinear regression analysis.
Example compounds were confirmed to inhibit NLRP3 inflammasome activation and IL-1β production.
`Cc1ccc(-c2nnc3c(c2C)CCCN3[C@@H]2CCCN(C)C2)c(O)c1` [Example 11]: the IC50 amounted to 46 nM.

As for `Cc1c(-c2ccc(C(F)(F)F)cc2O)nnc2c1CN(C)[C@H](C)CN2[C@@H]1CCCC[C@H]1O` [Example 42], the 50% inhibitory concentration (IC50) was found to be 60 nM.

`COC1CCN([C@@H]2CCCC[C@H]2O)c2nnc(-c3ccc(C(F)(F)F)cc3O)c(C)c21` (some centres unmarked) [Example 21]: the IC50 was 16 nM.

`CC(=O)N1CCC[C@@H](N2CCCc3c2nnc(-c2ccc(C(F)(F)F)cc2O)c3C)C1` [Example 8]: the IC50 is 26 nM.

For `Cc1c(-c2ccc(C(F)(F)F)cc2O)nnc2c1CCN2C[C@@H](C)O` [Example 20], the IC50 was 200 nM.

As to `Cc1c(-c2ccc(C(F)(F)F)cc2O)nnc2c1CN(C)CCN2[C@@H]1CCCC[C@H]1O` [Example 7, 2-{9-[(1R,2R)-2-hydroxycyclohexyl]-4,6-dimethyl-6,7,8,9-tetrahydro-5H-pyridazino[3,4-e][1,4]diazepin-3-yl}-5-(trifluoromethyl)phenol], the IC50 is 16 nM.

In the case of `Cc1c(-c2ccc(C(F)(F)F)cc2O)nnc2c1CCCN2[C@@H]1CCCN(S(C)(=O)=O)C1` [Example 34, 2-{8-[(3R)-1-(methansulfonyl)piperidin-3-yl]-4-methyl-5,6,7,8-tetrahydropyrido[2,3-c]pyridazin-3-yl}-5-(trifluoromethyl)phenol], the IC50 came to 37 nM.

`Cc1c(-c2ccc(C(F)(F)F)cc2O)nnc2c1CN(Cc1ccccc1)CCN2[C@@H]1CCCC[C@H]1O` [Example 23]: the IC50 stood at 250 nM.
